# Target: Non-receptor tyrosine-protein kinase TYK2 (Homo sapiens, UniProt P29597)
# Assay: Reactions were incubated at 22° C. in 384-well polypropylene microtiter plates for 30 minutes and then stopped by addition of 25 μL of an EDTA containing solution (100 mM Hepes pH 7.2, 0.015% Brij-35, 150 mM EDTA), resulting in a final EDTA concentration of 50 mM. Ki values were then determined using the Morrison tight binding model. Morrison, J. F., Biochim. Biophys. Acta. 185:269-296 (1969); William, J. W. and Morrison, J. F., Meth. Enzymol., 63:437-467 (1979).
# Sequence of Non-receptor tyrosine-protein kinase TYK2 (P29597 whole entry): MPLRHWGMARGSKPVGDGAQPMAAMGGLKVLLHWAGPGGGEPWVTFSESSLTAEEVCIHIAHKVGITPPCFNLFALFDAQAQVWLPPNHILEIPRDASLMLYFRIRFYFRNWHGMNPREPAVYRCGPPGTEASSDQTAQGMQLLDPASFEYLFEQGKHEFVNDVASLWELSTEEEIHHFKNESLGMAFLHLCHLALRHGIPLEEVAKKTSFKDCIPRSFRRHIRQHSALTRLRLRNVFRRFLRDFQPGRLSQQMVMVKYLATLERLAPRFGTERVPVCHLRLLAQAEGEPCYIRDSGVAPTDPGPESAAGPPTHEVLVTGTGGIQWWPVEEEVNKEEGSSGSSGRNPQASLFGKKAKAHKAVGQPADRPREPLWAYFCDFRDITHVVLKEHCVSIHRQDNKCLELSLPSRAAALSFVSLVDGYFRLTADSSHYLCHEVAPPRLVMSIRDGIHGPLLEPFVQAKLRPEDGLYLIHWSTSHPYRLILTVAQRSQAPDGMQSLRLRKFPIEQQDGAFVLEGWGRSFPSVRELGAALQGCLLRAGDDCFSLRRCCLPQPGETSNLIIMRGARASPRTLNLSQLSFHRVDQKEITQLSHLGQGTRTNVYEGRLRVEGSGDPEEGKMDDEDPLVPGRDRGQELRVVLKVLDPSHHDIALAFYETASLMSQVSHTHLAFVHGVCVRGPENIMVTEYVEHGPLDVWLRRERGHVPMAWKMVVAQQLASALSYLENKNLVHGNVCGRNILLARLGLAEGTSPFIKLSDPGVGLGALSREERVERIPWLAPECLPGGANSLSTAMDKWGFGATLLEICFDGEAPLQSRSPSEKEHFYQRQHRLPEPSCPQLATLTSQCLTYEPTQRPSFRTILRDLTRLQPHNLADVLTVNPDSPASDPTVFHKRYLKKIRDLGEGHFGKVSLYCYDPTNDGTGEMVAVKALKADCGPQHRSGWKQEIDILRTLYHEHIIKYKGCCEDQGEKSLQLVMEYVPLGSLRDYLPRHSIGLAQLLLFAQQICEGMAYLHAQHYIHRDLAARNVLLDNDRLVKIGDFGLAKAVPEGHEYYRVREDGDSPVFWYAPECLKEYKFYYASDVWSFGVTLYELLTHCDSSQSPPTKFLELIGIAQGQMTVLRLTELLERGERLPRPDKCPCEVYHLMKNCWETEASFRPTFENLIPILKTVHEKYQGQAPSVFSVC
row,Compound,Ki
1,OC1CN(c2cc(Nc3ncnc4nc(-c5c(Cl)cccc5Cl)sc34)ncn2)C1,0.087 µM
2,COC(=O)Nc1nccc2nc(-c3c(Cl)cccc3Cl)sc12,0.0014 µM

# From ChEMBL document CHEMBL3638741, “Azabenzothiazole compounds, compositions and methods of use” (2014)
